# Data as given in PMC6462414 (Nature, 2018).
# Read-outs that look alike come from different tables or passages of the source.
# What was measured:
# [1] = Hepatic and renal toxicity in mice; format: in vivo, mouse; conditions: every 12 h for 3 days, i.p.; analogue 2 10–80 mg kg^−1, vancomycin 25 mg kg^−1; P > 0.7
# S. aureus MW2 [2] = format: cell-based, Staphylococcus aureus; conditions: for retinoid-resistant mutants by plating: 10^10 CFU MW2 plated on agar with 2.5×, 5× or 10× MIC
# human erythrocytes = test: Haemolytic activity; format: cell-based; conditions: 2% human erythrocytes, 1 h
# [3] = system: MRSA-MW2-infected C. elegans; test: C. elegans-MRSA killing assay; format: in vivo, Caenorhabditis elegans; conditions: for C. elegans protected against MW2-induced death: at concentrations above in vitro MICs
# S. aureus MW2 persisters [4] = test: Viability of MRSA MW2 persisters; format: cell-based, Staphylococcus aureus; conditions: for eradication of MRSA persisters: at 8 μg ml^−1; for killing of MRSA persister cells: stationary-phase MW2, 4 h
# S. aureus MW2 [5] = test: Transmission electron microscopy of retinoid-treated cells; format: cell-based, Staphylococcus aureus; conditions: 10× MIC
# [6] = system: Exponential-phase MRSA cells (strain MW2); test: Killing kinetics, exponential-phase MRSA MW2; format: cell-based, Staphylococcus aureus; conditions: 10× MIC, level of detection 2 × 10^2 CFU ml^−1
# [7] = system: normal human primary hepatocytes; test: Cytotoxicity, human primary hepatocytes; format: cell-based; conditions: 24 h
# [8] = system: persisters formed by clinical isolates including VRS1; test: Viability of persisters of clinical S. aureus isolates; format: cell-based, Staphylococcus aureus; conditions: 8–10× MIC; including multi-drug resistant VRS1
# MRSA strain MW2 = test: MIC / growth inhibition of MRSA strain MW2; format: cell-based, Staphylococcus aureus; conditions: for minimum inhibitory concentration (MIC): MRSA strain MW2
# [9] = system: exponential-phase S. aureus MW2 cells; test: SYTOX Green membrane permeabilization, exponential-phase MW2; format: cell-based, Staphylococcus aureus
# [10] = system: Enterococcus faecium strains; test: Activity against Enterococcus faecium strains; format: cell-based
# [11] = Giant unilamellar vesicle integrity; conditions: DOPC:DOPG 7:3
# [12] = system: Exponential-phase S. aureus MW2; test: Cell lysis; format: cell-based, Staphylococcus aureus; conditions: 10× MIC, 4 h, OD600
# [13] = system: MRSA growing and persister cells; test: Synergism with gentamicin; format: cell-based, Staphylococcus aureus
# S. aureus MW2 persisters [14] = conditions: not told
# Gram-negative species = test: Activity against Gram-negative species; format: cell-based
# MRSA MW2 biofilms = test: Persisters in MRSA biofilms; format: cell-based, Staphylococcus aureus
# [15] = system: clinical S. aureus strains; test: Activity against panel of clinical S. aureus strains; format: cell-based, Staphylococcus aureus
# [16] = cited from earlier work
# S. aureus MW2 persisters [17] = test: SYTOX Green membrane permeabilization, MW2 persisters; conditions: SYTOX Green uptake
# [18] = system: MW2-infected neutropenic mice; test: Deep-seated mouse thigh MRSA infection model; format: in vivo; conditions: 20 mg kg^−1 i.p. alone or in combination with gentamicin 30 mg kg^−1 s.c.
# [19] = 100 days serial passage in sub-MIC CD437
compound,measurement,setting,value
CN[C@H](CC(C)C)C(=O)N[C@H]1C(=O)N[C@@H](CC(N)=O)C(=O)N[C@H]2C(=O)N[C@H]3C(=O)N[C@H](C(=O)N[C@H](C(=O)O)c4cc(O)cc(O)c4-c4cc3ccc4O)[C@H](O)c3ccc(c(Cl)c3)Oc3cc2cc(c3O[C@@H]2O[C@H](CO)[C@@H](O)[C@H](O)[C@H]2O[C@H]2C[C@](C)(N)[C@H](O)[C@H](C)O2)Oc2ccc(cc2Cl)[C@H]1O [vancomycin],ALT and BUN versus control,[1],lack of significant differences
daptomycin,increase in resistance after serial passage,S. aureus MW2 [2]; serial passage in daptomycin for 15 days,tenfold
O=C(O)c1ccc(-c2ccc3cc(O)c(C45CC6CC(CC(C6)C4)C5)cc3c2)cc1 [CD1530],median haemolytic concentration (HC50),human erythrocytes,greater than 32 μg ml^−1
same,C. elegans protected against MW2-induced death,[3],100%
same,eradication of MRSA persisters,S. aureus MW2 persisters [4],completely eradicated MRSA persisters
same,killing of MRSA persister cells,S. aureus MW2 persisters [4],killed MRSA-persister cells
same,formation of mesosome-like structures,S. aureus MW2 [5],caused the formation of mesosome-like structures
same,levels of MW2 after two hours,[6],below the limit of detection
same,median lethal concentration (LC50),[7],≥ 20 µg/mL
same,time to complete eradication of persisters of 13 clinical isolates,[8],1 to 4 h
same,minimum inhibitory concentration (MIC),MRSA strain MW2,1 µg/mL
same,retinoid-resistant mutants by plating,S. aureus MW2 [2],unable to obtain retinoid-resistant mutants
same,increase in resistance after serial passage,S. aureus MW2 [2]; [19],twofold
same,membrane permeabilization (SYTOX Green uptake),[9],induced membrane permeabilization
same,activity against Enterococcus faecium strains,[10],potent activity
same,integrity of giant unilamellar vesicles,[11],disrupted the integrity
same,direct lysis of bacterial cells,[12],did not lyse bacterial cells directly
same,synergism with gentamicin,[13],significant synergism
same,permeabilization of MRSA-persister membranes,S. aureus MW2 persisters [14],induced rapid permeabilization
same,activity against Gram-negative species,Gram-negative species,not against Gram-negative species
same,persisters in MRSA biofilms killed,MRSA MW2 biofilms; 16× MIC,around 90%
same,persisters in MRSA biofilms killed,MRSA MW2 biofilms; 32× MIC,~100%
same,activity against panel of clinical S. aureus strains,[15],potent activity
O=C(O)/C=C/c1ccc(-c2ccc(O)c(C34CC5CC(CC(C5)C3)C4)c2)cc1 [adarotene],median haemolytic concentration (HC50),human erythrocytes,greater than 32 μg ml^−1
same,MRSA-induced death of C. elegans,[3]; in vivo,prevented the MRSA-induced death of C. elegans
same,killing of MRSA persister cells,S. aureus MW2 persisters [4],inactive against persister cells
same,MIC,"MRSA strain MW2; Staphylococcus aureus, MRSA, read-out: minimum inhibitory concentration (MIC)",2 µg/mL
same,retinoid-resistant mutants by plating,S. aureus MW2 [2],unable to obtain retinoid-resistant mutants
same,increase in resistance after serial passage,S. aureus MW2 [2]; [19],twofold
same,membrane permeabilization (SYTOX Green uptake),[9]; exponential-phase MW2,induced membrane permeabilization
same,excretion,[16],excreted rapidly
same,integrity of giant unilamellar vesicles,[11],disrupted the integrity
O=C(O)c1cn(C2CC2)c2cc(N3CCNCC3)c(F)cc2c1=O [ciprofloxacin],increase in resistance after serial passage,S. aureus MW2 [2]; serial passage in ciprofloxacin for 100 days,256 fold
COc1ccc(-c2ccc3cc(C(=O)O)ccc3c2)cc1C12CC3CC(CC(C3)C1)C2 [adapalene],activity against MRSA,MRSA strain MW2; MRSA MW2,ineffective against MRSA
O=C(O)c1ccc2cc(-c3ccc(O)c(C45CC6CC(CC(C6)C4)C5)c3)ccc2c1 [CD437],median haemolytic concentration (HC50),human erythrocytes,greater than 32 μg ml^−1
same,C. elegans protected against MW2-induced death,[3],100%
same,eradication of MRSA persisters,S. aureus MW2 persisters [4],completely eradicated MRSA persisters
same,killing of MRSA persister cells,S. aureus MW2 persisters [4],killed MRSA-persister cells
same,formation of mesosome-like structures,S. aureus MW2 [5],caused the formation of mesosome-like structures
same,levels of MW2 after two hours,[6],below the limit of detection
same,median lethal concentration (LC50),[7],≥ 20 µg/mL
same,time to complete eradication of persisters of 13 clinical isolates,[8],1 to 4 h
same,minimum inhibitory concentration (MIC),MRSA strain MW2,1 µg/mL
same,retinoid-resistant mutants by plating,S. aureus MW2 [2],unable to obtain retinoid-resistant mutants
same,increase in resistance after serial passage,S. aureus MW2 [2]; [19],twofold
same,membrane permeabilization (SYTOX Green uptake),[9]; exponential-phase MW2,induced membrane permeabilization
same,activity against Enterococcus faecium strains,[10],potent activity
same,permeabilization of MRSA-persister membranes,S. aureus MW2 persisters [17],induced rapid permeabilization
same,integrity of giant unilamellar vesicles,[11],disrupted the integrity
same,direct lysis of bacterial cells,[12],did not lyse bacterial cells directly
same,synergism with gentamicin,[13],significant synergism
same,efficacy in thigh infection model,[18],exhibited efficacy
same,activity against Gram-negative species,Gram-negative species,not against Gram-negative species
same,persisters in MRSA biofilms killed,MRSA MW2 biofilms; 16× MIC,around 90%
same,persisters in MRSA biofilms killed,MRSA MW2 biofilms; 32× MIC,~100%
same,activity against panel of clinical S. aureus strains,[15],potent activity
